Earlier results in patent US11122828B2, “Microbial compositions comprising ellagitannin and methods of use” (MarvelBiome, Inc., priority 2018, dated 2021).
Where two headings read alike, the source gives them in different places. Values belong to the molecule of their own block, whether it stands above or below them.

Experiments:
[1] = plasma concentration up to micromolar (μM) levels
colon cancer cells = settings: in vitro
[2] = test system: inflammatory markers including inducible nitric oxide synthase, cycloxygenase-2 (COX-2), prostaglandin E synthase and prostaglandin E2; settings: rat colitis model

Molecule: O=c1oc2cc(O)ccc2c2ccc(O)cc12 [urolithin A, 3,8-dihydroxyurolithin]
toxic effects in vivo [1]: without any apparent toxic effects
proliferation of colon cancer cells (colon cancer cells): inhibit proliferation
inflammatory markers in colonic mucosa [2]: decrease inflammatory markers

bioavailability (in vivo): 0.3%
Molecule: anthocyanins

bioavailability (estimated, phenols): 43%
Molecule: isoflavones
